According to patent publication US20190314361A1 (Athenex Therapeutics Limited, priority 2018, published 2019):
≈ marks a conversion by molar mass, not a printed value. Where “and” joins values, the source holds several entries; their conditions need not be identical. Identical values can stand only once. Like-named read-outs stand apart in the source and are kept apart here.

How the values were obtained:
[1] = Cardiovascular safety pharmacology in dogs; format: in vivo, dog; settings: oral administration
[2] = CNS safety pharmacology study in rats; format: in vivo, rat; settings: oral administration
[3] = system: A431 vaginal epidermoid human cancer cell line; settings: NU/Nu Balb/C mice, paclitaxel alone 30 mg/kg IV, 1x weekly for 3 weeks
Method: (§1) In these studies, tumor inhibition rate (IR %) was calculated as ([1−relative tumor growth in treated group/relative tumor growth in control group]×100). Tumor regression was calculated as (Mean Tumor WeightEnd of treatment/Mean tumor WeightBeginning of treatment)×100. Therefore, a value <100% for tumor regression indicates a decrease in tumor weight over the course of the study and a value >100% indicates an increase in tumor weight. Tumor growth delay was calculated as the median number of days to reach two tumor mass doublings.

[4] = system: SK-OV-3 ovarian human cancer cell line; settings: NCr-nu (athymic) mice, paclitaxel alone 18 mg/kg IV, every other day for 4 doses
Method: as §1

[5] = system: MDA-MB-231 mammary human cancer cell line; settings: NCr-nu (athymic) mice, paclitaxel alone 18 mg/kg IV, every other day for 4 doses
Method: as §1

[6] = system: HT-29 colon human cancer cell line; settings: NU/Nu Balb/C mice
Method: as §1

[7] = system: NCI-H460 lung human cancer cell line; settings: Athymic nude mice, paclitaxel alone 24 mg/kg IV, every other day for 4 doses
Method: as §1

[8] = system: SKOV-3 ovarian human cancer cell line; settings: NU/Nu Balb/C mice, paclitaxel alone 30 mg/kg IV, 1x weekly for 3 weeks
Method: as §1

MS1 cells = test: In vitro cytotoxicity (MTT) in MS1 cells; format: cell-based, mouse; settings: MS1, 72 hours, Mean ± SD
Method: (§2) Three independent experiments of two replicates were completed. A 10 μL aliquot of 3-(4,5-dimethylthiazol-2-yl)-2,5-diphenyltetrazolium bromide (MTT) solution (5 mg/mL in PBS) was added to each well and incubated at 37° C. for 2 hours. The culture medium was removed followed by addition of 100 μL of DMSO to each well. The absorbance in each well was measured at 540 nm using a SpectraMax microplate reader. A sigmoid Emax model using nonlinear regression (Equation 1) with least squares fit was used to estimate Emax and GI50 values using GraphPad Prism 6 for each experiment:
(§3) The average Emax and GI50 values and standard deviated from three individual experiments were calculated and reported. R-squared of all curve fits exceeded 0.9.

SVRbag4 cells = test: In vitro cytotoxicity (MTT) in SVRbag4 cells; format: cell-based, mouse; settings: SVRbag4, 72 hours, Mean ± SD
Method: as §2, §3

[9] = human; for AUC0-24 / Cmax: range across dose levels, 2 consecutive daily oral doses
Method: A 2-part study was conducted in subjects with advanced/metastatic or recurrent gastric cancer. […] In some cases, an additional 15 mg tablet of Compound A on Day 2 was given in each dosing week. A total of 56 subjects enrolled in this study: 10 subjects with advanced malignant tumors in Part 1 and 46 subjects with advanced gastric cancer in Part 2.

[10] = for AUCinf / AUClast / CL/F / Cmax / MRTinf / Vd/F / t1/2 / CLR: in vivo, po
HMEC-1 cells = test: In vitro cytotoxicity (MTT) in HMEC-1 cells; format: cell-based, human; settings: HMEC-1, 72 hours, Mean ± SD
Method: as §2, §3

[11] = dogs
[12] = Paclitaxel pharmacokinetics in rats after single oral dose with Compound A; format: in vivo, rat
SVRA221a cells = test: In vitro cytotoxicity (MTT) in SVRA221a cells; format: cell-based, mouse; settings: 72 hours, Mean ± SD
Method: as §2, §3

[13] = system: tubulin in MS1, SVRA221a, and SVRbag4 cell lines; test: Immunofluorescence microscopy of tubulin disruption; format: cell-based, mouse; settings: SVRbag4 treated with 1-100 nM paclitaxel for 3 hours
Method: Coverslips (22-mm) were pre-coated with rat tail collagen for 1 hour then seeded with cells in 6-well plates for 24 hours before treatment. […] After blocking with 2% BSA in PBS for 30 min, cells were incubated with anti α-tubulin antibody (Sigma 6199) diluted in blocking buffer (2% BSA in PBS) for 1.5 hours at room temperature. Cells were washed three times with PBS and incubated with […] anti-Mouse IgG (Invitrogen) for 1 hours at room temperature. Following three PBS washes, coverslips were mounted on glass slides in ProLong antifade reagent (Invitrogen). Fluorescent images were captured using a Nikon TE2000-E inverted microscope for two independent experiments.

[14] = Paclitaxel pharmacokinetics in dogs after single oral dose with Compound A; format: in vivo, dog
[15] = Mus musculus, medium pre-supplemented with 1 μM Compound A
[16] = Fasted, single oral dose paclitaxel 6 mg/kg with Compound A 3 mg/kg
[17] = Fed, single oral dose paclitaxel 6 mg/kg with Compound A 3 mg/kg
[18] = single oral dose paclitaxel 5 mg/kg with Compound A
[19] = single oral dose paclitaxel 10 mg/kg with Compound A
[20] = single oral dose paclitaxel 20 mg/kg with Compound A
[21] = single oral dose paclitaxel 30 mg/kg with Compound A
[22] = single oral dose paclitaxel 40 mg/kg with Compound A
[23] = single oral dose paclitaxel 50 mg/kg with Compound A
[24] = single oral dose paclitaxel 2 mg/kg with Compound A
[25] = single oral dose paclitaxel 4 mg/kg with Compound A
[26] = single oral dose paclitaxel 6 mg/kg with Compound A

COc1cc2c(cc1OC)CN(CCc1ccc(-n3nnc(-c4cc(OC)c(OC)cc4NC(=O)c4cc(=O)c5ccccc5o4)n3)cc1)CC2 [Compound A]
Effect on PR and QRS intervals [1]: absence
Effect on body temperature [2]: absence

CC(=O)O[C@H]1C(=O)[C@@]2(C)[C@H]([C@H](OC(=O)c3ccccc3)[C@]3(O)C[C@H](OC(=O)[C@H](O)[C@@H](NC(=O)c4ccccc4)c4ccccc4)C(C)=C1C3(C)C)[C@]1(OC(C)=O)CO[C@@H]1C[C@@H]2O [Paclitaxel, 5,20-Epoxy-1,2,4,7,10-13-hexahydroxytax-11-en-9-one-4,10-diacetate 2-benzoate 13-ester with (2R,3S)—N-benzoyl-3-phenylisoserine]
Effect: tumor inhibition rate (IR %) [3]: 45.41 IR %
Effect: growth delay [4]: 43.8 days
Effect: growth delay [5]: >55.9 days
Effect: tumor regression ([6]; paclitaxel alone 20 mg/kg IV every 4 days for 4 doses, >100% = increase in tumor weight): 163.09% tumor
Effect: tumor inhibition rate (IR %) ([6]; paclitaxel alone 25 mg/kg IP every 4 days for 4 doses): 65.82 IR %
Effect: growth delay [7]: 16.3 days
Effect: tumor inhibition rate (IR %) [8]: 72.79 IR %
Emax (% inhibition) (MS1 cells): 93 ± 4.5 % inhibition
GI50 (MS1 cells; Mus musculus, MS-1, medium pre-supplemented with 1 μM Compound A): 1.8 ± 0.36 ng/mL (≈ 2.11 nM)
GI50 (SVRbag4 cells; [15]): 3.9 ± 1 ng/mL (≈ 4.57 nM)
Emax (% inhibition) (SVRbag4 cells): 99 ± 1.4 % inhibition
Overall exposure on Day 2, higher than Day 1 ([9]; in vivo, po): 20-30%
AUC0-24 ([9]; Day 1): 611 to 894 ng·h/mL
Cmax ([9]; Day 1): 202 to 280 ng/mL
AUC0-24 ([9]; Day 2): 735 to 1081 ng·h/mL
Cmax ([9]; Day 2): 159 to 315 ng/mL
MTD ([10]; 24 subjects with advanced solid cancer, oral paclitaxel 60 to 420 mg/m^2 on days 1, 8, 15 of 28-day cycle with Compound A): not reached
AUCinf ([10]; human, 60 mg/m2): 727.1 ng·h/mL
AUClast ([10]; human, 60 mg/m2): 584.1 ng·h/mL
CL/F ([10]; human, 60 mg/m2): 178.4 L/h
Cmax ([10]; human, 60 mg/m2): 149.6 ng/mL
MRTinf ([10]; human, 60 mg/m2): 28.6 h
Vd/F ([10]; human, 60 mg/m2): 9128.7 L
t1/2 ([10]; human, 60 mg/m2): 32.1 h
AUCinf ([10]; human, 120 mg/m2): 1840.1 ng·h/mL
AUClast ([10]; human, 120 mg/m2): 1611.1 ng·h/mL
CLR ([10]; human, 120 mg/m2): 3.0 L/h
MRTinf ([10]; human, 120 mg/m2): 17.0 h
Vd/F ([10]; human, 120 mg/m2): 4036.0 L
AUCinf ([10]; human, 180 mg/m2): 1985.0 ng·h/mL
AUClast ([10]; human, 180 mg/m2): 1673.9 ng·h/mL
CL/F ([10]; human, 180 mg/m2): 173.4 L/h
CLR ([10]; human, 180 mg/m2): 1.8 L/h
Cmax ([10]; human, 180 mg/m2): 432.0 ng/mL
MRTinf ([10]; human, 180 mg/m2): 21.9 h
Vd/F ([10]; human, 180 mg/m2): 6030.7 L
t1/2 ([10]; human, 180 mg/m2): 24.4 h
AUCinf ([10]; human, 240 mg/m2): 2971.2 ng·h/mL
AUClast ([10]; human, 240 mg/m2): 2547.4 ng·h/mL
CL/F ([10]; human, 240 mg/m2): 147.6 L/h
CLR ([10]; human, 240 mg/m2): 2.4 L/h
Cmax ([10]; human, 240 mg/m2): 509.6 ng/mL
MRTinf ([10]; human, 240 mg/m2): 23.4 h
Vd/F ([10]; human, 240 mg/m2): 6011.5 L
t1/2 ([10]; human, 240 mg/m2): 25.7 h
AUCinf ([10]; human, 300 mg/m2): 3481.1 ng·h/mL
AUClast ([10]; human, 300 mg/m2): 3135.0 ng·h/mL
CLR ([10]; human, 300 mg/m2): 2.0 L/h
MRTinf ([10]; human, 300 mg/m2): 16.2 h
Vd/F ([10]; human, 300 mg/m2): 4927.3 L
AUCinf ([10]; human, 360 mg/m2): 2851.7 ng·h/mL
AUClast ([10]; human, 360 mg/m2): 2512.1 ng·h/mL
CL/F ([10]; human, 360 mg/m2): 228.7 L/h
CLR ([10]; human, 360 mg/m2): 7.3 L/h
Cmax ([10]; human, 360 mg/m2): 655.0 ng/mL
MRTinf ([10]; human, 360 mg/m2): 18.7 h
Vd/F ([10]; human, 360 mg/m2): 6837.8 L
t1/2 ([10]; human, 360 mg/m2): 20.8 h
AUCinf ([10]; human, 420 mg/m2): 3731.5 ng·h/mL
AUClast ([10]; human, 420 mg/m2): 3407.1 ng·h/mL
CL/F ([10]; human, 420 mg/m2): 244.9 L/h
CLR ([10]; human, 420 mg/m2): 2.9 L/h
Cmax ([10]; human, 420 mg/m2): 707.5 ng/mL
MRTinf ([10]; human, 420 mg/m2): 14.7 h
Vd/F ([10]; human, 420 mg/m2): 7175.1 L
t1/2 ([10]; human, 420 mg/m2): 19.9 h
T1/2 ([10]; human, range over oral paclitaxel doses 60 to 420 mg/m^2 with Compound A): 19.9 to 32.1 h
Emax (% inhibition) (HMEC-1 cells): 99 ± 0.10 % inhibition
GI50 (HMEC-1 cells; Homo sapiens, medium pre-supplemented with 1 μM Compound A): 0.46 ± 0.23 ng/mL (≈ 0.539 nM)
AUClast [11, 16]: 1599.8 ± 416.5 ng·h/mL
CL/F [11, 16]: 4.2 ± 1.2 L/h
Tmax [11, 16]: 0.5 ± 0.0 h
t1/2 [11, 16]: 9.4 ± 0.3 h
AUClast [11, 17]: 849.1 ± 119.9 ng·h/mL
CL/F [11, 17]: 6.4 ± 1.3 L/h
Cmax [11, 17]: 299.0 ± 54.6 ng/mL
Tmax [11, 17]: 0.7 ± 0.2 h
t1/2 [11, 17]: 9.9 ± 2.7 h
Paclitaxel Cmax and AUC, fasted group as compared to fed group ([11]; orally administered paclitaxel): ~2 fold
AUClast Paclitaxel [12, 18]: 333 ng·h/mL
Cmax Paclitaxel [12, 18]: 103 ng/mL
Tmax Paclitaxel [12, 18]: 0.6 h
AUClast Paclitaxel [12, 19]: 1027 ng·h/mL
Cmax Paclitaxel [12, 19]: 356 ng/mL
Tmax Paclitaxel [12, 19]: 0.7 h
AUClast Paclitaxel [12, 20]: 3009 ng·h/mL
Cmax Paclitaxel [12, 20]: 852 ng/mL
Tmax Paclitaxel [12, 20]: 1.2 h
AUClast Paclitaxel [12, 21]: 6638 ng·h/mL
Cmax Paclitaxel [12, 21]: 1761 ng/mL
Tmax Paclitaxel [12, 21]: 1.2 h
t1/2 Paclitaxel [12, 21]: 6.0 h
AUClast Paclitaxel [12, 22]: 11052 ng·h/mL
Cmax Paclitaxel [12, 22]: 2488 ng/mL
Tmax Paclitaxel [12, 22]: 1.5 h
t1/2 Paclitaxel [12, 22]: 5.5 h
AUClast Paclitaxel [12, 23]: 13124 ng·h/mL
Cmax Paclitaxel [12, 23]: 3067 ng/mL
Tmax Paclitaxel [12, 23]: 1.4 h
t1/2 Paclitaxel [12, 23]: 5.3 h
Emax (% inhibition) (SVRA221a cells): 96 ± 1.1 % inhibition
GI50 (SVRA221a cells; [15]): 1.8 ± 1 ng/mL (≈ 2.11 nM)
concentration at which condensed and rounded morphology and polymerization of microtubules start [13]: 5-10 nM and 4.2-8.5 ng/mL
AUClast Paclitaxel [14, 24]: 413 ng·h/mL
Tmax Paclitaxel [14, 24]: 0.5 h
AUClast Paclitaxel [14, 25]: 1331 ng·h/mL
Tmax Paclitaxel [14, 25]: 0.7 h
AUClast Paclitaxel [14, 26]: 2123 ng·h/mL
Tmax Paclitaxel [14, 26]: 0.5 h
